Assay results: patent US6319894A, “Complexes and combinations of fetuin with therapeutic agents” (The Picower Institute for Medical Research, priority 1997, dated 2001)
Structures can show the parent of a compound that is named as a salt. Where two headings read alike, the source gives them in different places.

Assays:
[1] = system: LPS-stimulated RAW 264.7 cells (inducible nitric oxide synthase, iNOS); assay: NO / nitrite production (Griess reaction, iNOS activity) in LPS-stimulated RAW 264.7 cells; assay type: cell-based, murine; conditions: for augmentation of CNI-1493 activity (nitrite production): glycoprotein 2.5 μg/ml, CNI-1493 2.0 μM, FIG. 13
Protocol: (§1) Typically, cultures were maintained in 150-mm plates with 30 mls culture medium until they reached 80-90% confluence, and were then subjected to different experimental protocols. […] The incubation was continued for another 24 hours before subjecting the cultures to further experiments.
(§2) LPS (endotoxin) was sonicated for 10 minutes and added to culture media to achieve the desired final concentration, typically 100 ng/ml.
Inducible nitric oxide synthase activity (iNOS) was assayed indirectly by measuring NO^2- production. NO^2- was measured by a colorimetric assay based on the Griess reaction. […] The optical density was read at 560 nm after 10 min, and NO^2- concentration was determined with reference to a standard curve by using concentrations of 1.5 to 50 μM sodium nitrite in culture medium.

[2] = system: LPS-stimulated RAW 264.7 cells (LPS-inducible arginase II activity); assay: Urea production (LPS-inducible arginase II functional assay) in LPS-stimulated RAW 264.7 cells; assay type: cell-based, murine
Protocol: as §1, §2
Accumulation of urea in the cell culture medium was measured as a functional assay of LPS-inducible arginase II activity. […] The optical density at 535 nm was measured, and urea concentrations were calculated by comparison with OD535 of standard dilutions of urea prepared in culture medium.
Whole-cell lysate preparations were fractionated by sequential ultrafiltration over Amicon Centricon®-100, and Centricon®-30 filters, respectively.

[3] = system: LPS-stimulated RAW 264.7 cells (TNF production); assay: TNF production (ELISA) in LPS-stimulated RAW 264.7 cells; assay type: cell-based, murine; conditions: for inhibition at 2.5 µM: RAW264.7, 4 h
Protocol: as §1, §2

[4] = system: arginine uptake; assay: Assay for arginine uptake; assay type: cell-based
[5] = system: LPS-stimulated human PBMCs (TNF production); assay: TNF production in LPS-stimulated human PBMCs; assay type: cell-based; conditions: CNI-1493 50 nM, FIG. 11; for enhancement of CNI-1493 activity (TNF suppression in PBMCs): fetuin 1.0 μg/ml or 10 μg/ml
[6] = Charge at physiological pH; assay type: physicochemical
[7] = system: LPS-stimulated RAW 264.7 cells (LPS-inducible arginase II activity); conditions: pre-treatment; prior studies; cited from earlier work
[8] = system: LPS-stimulated RAW 264.7 cells (inducible nitric oxide synthase, iNOS); conditions: pre-treatment; prior studies; cited from earlier work
[9] = system: LPS-stimulated RAW 264.7 cells (TNF production); conditions: pre-treatment; prior studies; cited from earlier work
[10] = system: human peripheral blood mononuclear cells; conditions: background statement, cited from earlier work
[11] = system: mice, endotoxin (LPS) lethality; conditions: in vivo; background statement; cited from earlier work
[12] = system: rat paw edema; conditions: carageenan administration; background statement; cited from earlier work
[13] = system: NO production; conditions: background statement; cited from earlier work
[14] = system: LPS-stimulated RAW 264.7 cells (IL-1 β, IL-6, MIP-1α, and MIP-1β); conditions: pre-treatment; prior studies; cited from earlier work
[15] = system: LPS-challenged mice (serum TNF); assay: Serum TNF levels in LPS-challenged mice; assay type: in vivo; conditions: fetuin 20 mg/kg pretreatment 1 hour; CNI-1493 2.5 mg/kg ip; LPS 13 mg/kg; serum at four hours; FIG. 12
Protocol: The fetuin pretreatment dose was 20 mg/kg.

[16] = LPS-activated macrophages, CNI-1493 alone
[17] = non-responsive cultures (≥56 hours after 1:4 split), CNI-1493 up to 5 μM

α1-acid glycoprotein: other glycoprotein, net negatively charged at physiological pH
augmentation of CNI-1493 activity (nitrite production) [1]: only fetuin was effective in augmenting CNI-1493 therapeutic activity

CC(=NNC(=N)N)c1cc(NC(=O)CCCCCCCCC(=O)Nc2cc(C(C)=NNC(=N)N)cc(C(C)=NNC(=N)N)c2)cc(C(C)=NNC(=N)N)c1 [CNI-1493, N,N'-bis[3,5-bis[1-(aminoiminomethyl)hydrazonoethyl]phenyl]decanediamide tetrahydrochloride]
suppression of urea production [2, 16]: dose-dependent suppression of urea production | inhibition at 5 µM ([2]; Mus musculus, RAW264.7, 20 h, read-out: decrease in urea accumulation compared to control): > 95% | inhibition at 2.5 µM ([2]; Mus musculus, RAW264.7, read-out: suppression of urea): > 50% | inhibition at 2.5 µM ([2]; Mus musculus, RAW264.7, read-out: suppression of urea accumulation): < 10% | IC50 ([2]; Mus musculus, RAW264.7, responsive cultures, estimated, read-out: IC50 (concentration of 50% inhibition) with respect to urea production): < 2 µM | effect on level of urea [2, 17]: not reduced | urea concentration, effect of CNI-1493 alone ([2]; partially non-responsive cells, 2.5 μM CNI-1493, FIG. 9): small degree of inhibitory activity | suppression of NO production [1, 16]: dose-dependent suppression | inhibition at 2.5 µM ([1]; Mus musculus, RAW264.7, read-out: suppression of NO): > 50% | inhibition at 2.5 µM ([1]; Mus musculus, RAW264.7, read-out: suppression of NO accumulation): < 10% | IC50 ([1]; Mus musculus, RAW264.7, responsive cultures, stated as approximately the same as the urea IC50, read-out: IC50 with respect to NO production): < 2 µM | effect on level of NO [1, 17]: not reduced | suppression of TNF-α production [3, 16]: dose-dependent suppression | inhibition at 2.5 µM ([3]; Mus musculus, read-out: suppression of TNF accumulation): < 10% | inhibition at 2.5 µM ([3]; Mus musculus, read-out: suppression of TNF production): > 90% | IC50 ([3]; Mus musculus, RAW264.7, responsive cultures, stated as approximately the same as the urea IC50, read-out: IC50 with respect to TNF production): < 2 µM | inhibition of TNF levels in culture supernatants ([3]; low serum precultured (non-responsive) cells, FIG. 1): not responsive | effect on level of TNF [3, 17]: not reduced | IC50 [4]: ~10 µM | suppression of TNF production in PBMCs by CNI-1493 [5]: active in suppressing TNF production | charge at physiological pH [6]: four positive charges | suppression of LPS-stimulated urea production [7]: suppresses | suppression of LPS-stimulated NO production [8]: suppresses | suppression of LPS-stimulated TNF production [9]: suppresses | inhibition of TNF translation [10]: inhibits TNF (tumor necrosis factor) translation | suppression of production of IL-1, IL-6, MIP-1α and MIP-1β ([10]; human peripheral blood mononuclear cells): suppresses the production of IL-1, IL-6, MIP-1α and MIP-1β | protection against lethal effects of endotoxin [11]: protects mice against lethal effects of endotoxin | anti-inflammatory effect, paw edema and inflammation [12]: suppression of rat paw edema and inflammation | IC50 [13]: 5 µM | suppression of several other cytokines such as IL-1 β, IL-6, MIP-1α, and MIP-1β [14]: suppresses

B1: human fetuin glycoprotein: human fetuin glycoprotein (commercially prepared, Sigma) (protein)
chain: MKSLVLLLCLAQLWGCHSAPHGPGLIYRQPNCDDPETEEAALVAIDYINQNLPWGYKHTLNQIDEVKVWPQQPSGELFEIEIDTLETTCHVLDPTPVARCSVRQLKEHAVEGDCDFQLLKLDGKFSVVYAKCDSSPDSAEDVRKVCQDCPLLAPLNDTRVVHAAKAALAAFNAQNNGSNFQLEEISRAQLVPLPPSTYVEFTVSGTDCVAKEATEAAKCNLLAEKQYGFCKATLSEKLGGAEVAVTCTVFQTQPVTSQPQPEGANEAVPTPVVDPDAPPSPPLGAPGLPPAGSPPDSHVLLAAPPGHQLHRAHYDLRHTFMGVVSLGSPSGEVSHPRKTRTVVQPSVGAAAGPVVPPCPGRIRHFKV
enhancement of CNI-1493 activity (TNF suppression in PBMCs) [5]: enhanced

B2: asialofetuin: fetuin glycoprotein treated to remove terminal sialic acid residues (protein, UniProt P12763 19-359, looked up)
Alpha-2-HS-glycoprotein: IPLDPVAGYKEPACDDPDTEQAALAAVDYINKHLPRGYKHTLNQIDSVKVWPRRPTGEVYDIEIDTLETTCHVLDPTPLANCSVRQQTQHAVEGDCDIHVLKQDGQFSVLFTKCDSSPDSAEDVRKLCPDCPLLAPLNDSRVVHAVEVALATFNAESNGSYLQLVEISRAQFVPLPVSVSVEFAVAATDCIAKEVVDPTKCNLLAEKQYGFCKGSVIQKALGGEDVRVTCTLFQTQPVIPQPQPDGAEAEAPSAVPDAAGPTPSAAGPPVASVVVGPSVVAVPLPLHRAHYDLRHTFSGVASVESSSGEAFHVGKTPIVGQPSIPGGPVRLCPGRIRYFKI
modifications: desialylated
notes: fetuin glycoprotein treated to remove terminal sialic acid residues
enhancement of CNI-1493 activity (suppression of urea production) ([2]; non-responsive cultures, glycoprotein 1.0 and 2.5 μg/ml, CNI-1493 2.5 μM, FIG. 10): not nearly as active as fetuin

B3: bovine fetuin (Sigma): globular 341-amino acid polypeptide with six internal disulfide bonds and three N-linked and two O-linked oligosaccharide chains (protein, UniProt P12763 19-359, looked up)
Alpha-2-HS-glycoprotein: B2 Alpha-2-HS-glycoprotein
enhancement of CNI-1493 activity (TNF suppression in PBMCs) [5]: enhanced, in a dose-dependent fashion | enhancement of CNI-1493 activity (suppression of serum TNF) [15]: greatly enhanced CNI-1493 therapeutic activity

B4: fetuin: globular protein of about 60-70 kDa, containing 20-25% carbohydrate (protein, UniProt P12763 19-359, looked up)
Alpha-2-HS-glycoprotein: B2 Alpha-2-HS-glycoprotein
augmentation of CNI-1493 activity (nitrite production) [1]: only fetuin was effective in augmenting CNI-1493 therapeutic activity

B5: glycophorin: other glycoprotein, net negatively charged at physiological pH (protein, UniProt P02724 20-150, looked up)
Glycophorin-A: LSTTEVAMHTSTSSSVTKSYISSQTNDTHKRDTYAATPRAHEVSEISVRTVYPPEEETGERVQLAHHFSEPEITLIIFGVMAGVIGTILLISYGIRRLIKKSPSDVKPLPSPDTDVPLSSVEIENPETSDQ
augmentation of CNI-1493 activity (nitrite production) [1]: only fetuin was effective in augmenting CNI-1493 therapeutic activity
